Test results as given in patent US20230406885A1, “CYCLIC PEPTIDES FOR TRAPPING INTERLEUKIN-1 BETA” (MERCK SHARP & DOHME LLC, priority 2022, published 2023).
*1 amine or outer side, *2 acyl side, *3 side chain or, on linkers, in order; H or OH if unused. Where a SMILES comes first, the peptide text is derived from it. [ ]: non-standard residue; d: D form. The star is where a group is joined. Trp(4-Cl)(βS-Me) = C[C@@H](c1c[nH]c2cccc(Cl)c12)[C@H](N)C(=O)O; Trp(βS-Me,4-F) = C[C@@H](c1c[nH]c2cccc(F)c12)[C@H](N)C(=O)O; Bip(4'-COOH) = N[C@@H](Cc1ccc(-c2ccc(C(=O)O)cc2)cc1)C(=O)O; X2 = O=C(O)c1ccc(-c2ccc(C[C@H](N[*:1])C(=O)[*:2])cn2)cc1; X1 = CC(=O)N1CCN(c2ccc(C[C@H](N[*:1])C(=O)[*:2])cn2)CC1; 1Nal(3S-Me) = C[C@@H](c1cccc2ccccc12)[C@H](N)C(=O)O; hPhe(4-CF3) = N[C@@H](CCc1ccc(C(F)(F)F)cc1)C(=O)O; Phe(4-COOH) = N[C@@H](Cc1ccc(C(=O)O)cc1)C(=O)O; h3Pal(5-CN) = N#Cc1cncc(CC[C@H](N)C(=O)O)c1; Pro(4R-NH2) = N[C@H]1CN[C@H](C(=O)O)C1; X7 = O=C([C@H](CCN1CCOCC1)N[*:1])[*:2]; 1Nal = N[C@@H](Cc1cccc2ccccc12)C(=O)O; AEF = NCCOc1ccc(C[C@H](N)C(=O)O)cc1; Ethyl(2-morpholino) = C1CN(CC*)CCO1; hTyr = N[C@@H](CCc1ccc(O)cc1)C(=O)O; hCha = N[C@@H](CCC1CCCCC1)C(=O)O; 4Pal = N[C@@H](Cc1ccncc1)C(=O)O; Orn = NCCC[C@H](N)C(=O)O; dNMeA = CN[C@H](C)C(=O)O; Dab = NCC[C@H](N)C(=O)O; Dap = NC[C@H](N)C(=O)O; Aib = CC(C)(N)C(=O)O

Biological target: T1, Recombinant human IL-1β (Homo sapiens, UniProt P01584)
T1 construct: purchased BioLegend 579404
Assay: IL-6 assay in MRC5 cells: inhibition of IL-1β induced IL-6 secretion (AlphaLISA)
Type: cell-based
Conditions: inhibition of IL-1β induced IL-6 secretion in MRC5 cells; IL-1β pre-incubated 1 hour with compound; read-out: MRC5 IC50
Method: Procedure for IL-6 Assay in MRC5 Cells
The inhibition of IL-1β induced IL-6 secretion was evaluated in MRC5 cells. Recombinant human IL-1β (BioLegend 579404) at 2×EC80 concentration was prepared in seeding medium, EMEM (ATCC 30-2003) with 0.025% BSA (Sigma A9576), 1× penicillin/streptomycin (Gibco 15070-063), 1×NEAA (Gibco 11140-050), 1× GlutaMax (Gibco 35050-061), and 1× sodium pyruvate (Gibco 11360-070). 20 μL of IL-1β was added to a 384-well collagen-coated plate (Corning 354664) and pre-incubated at ambient temperature for 1 hour with 200 nL of compound dispensed using an ECHO 555 liquid handler. Human lung fibroblast MRC5 cells (ATCC CCL-171) were added at a density of 3000 cells/20 μL per well. The cells were prepared by passaging three times in growth medium, EMEM (ATCC 30-2003) with 10% fetal bovine serum (Gibco 16140-071), 1× penicillin/streptomycin (Gibco 15070-063), 1×NEAA (Gibco 11140-050), 1× GlutaMax (Gibco 35050-061), and 1× sodium pyruvate (Gibco 11360-070) in collagen-coated T175 flasks (Greiner 661950) and harvested in seeding medium after 5 minutes of 0.25% trypsin-EDTA (Gibco 25200-056) digestion. The 384-well collagen-coated plate, containing a final volume of 40 μL, was incubated at 37° C., 5% CO2 overnight. 5 μL of the conditioned medium was transferred to a 384-well AlphaLISA plate (PerkinElmer 6005350) for detection of IL-6 using the human AlphaLISA IL-6 kit (PerkinElmer AL223F) as per the manufacturer's protocol. 20 μL of the acceptor bead/biotinylated antibody mix was added to the 384-well AlphaLISA plate and incubated for 1 hour at ambient temperature. The donor bead mix was protected from light and 25 μL was added to the plate and incubated for 30 minutes at ambient temperature. The AlphaLISA plate was read on an EnVision multimode plate reader (Perkin Elmer model 2104) using the AlphaScreen setting (laser exc at 680 nm and emis at 570 nm). Dose response curves and IC50 values were analyzed using a 4-parameter logistic equation in Spotfire software (Tibco, Palo Alto, CA).

T1 sequence (P01584 117-269): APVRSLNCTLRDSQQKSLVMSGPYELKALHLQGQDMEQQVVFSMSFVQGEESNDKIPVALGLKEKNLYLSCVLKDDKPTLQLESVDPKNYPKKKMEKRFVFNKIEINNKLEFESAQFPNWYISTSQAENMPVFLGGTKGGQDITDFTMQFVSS

Row | IC50 | SMILES
1 | 68.9 pM | CC(C)C[C@@H]1NC(=O)[C@H](Cc2ccccc2)NC(=O)[C@H](Cc2ccc(-c3ccc(C(=O)O)cc3)cc2)NC(=O)CNC(=O)[C@@H](C)N(C)C(=O)[C@H](CC(=O)O)NC(=O)[C@H]([C@@H](C)c2c[nH]c3cccc(F)c23)NC(=O)[C@@H]2C[C@@H](N)CN2C(=O)CNC(=O)[C@H](Cc2ccc(C(=O)O)cc2)NC(=O)[C@H](Cc2c[nH]c3ccccc23)NC(=O)[C@H](Cc2ccc(-c3ccc(C(=O)O)cc3)cc2)NC(=O)[C@H](CCc2ccc(O)cc2)NC(=O)[C@@H](C)NC1=O [Example 60] (cyclo([Bip(4'-COOH)]W[Phe(4-COOH)]G[Pro(4R-NH2)][Trp(βS-Me,4-F)]D[dNMeA]G[Bip(4'-COOH)]FL[dA][hTyr]))
2 | 63.9 pM | CC(=O)NCCOc1ccc(C[C@@H]2NC(=O)[C@H](CCc3cncc(C#N)c3)NC(=O)C(C)(C)NC(=O)[C@H](CN)NC(=O)[C@H](Cc3cccc4ccccc34)NC(=O)[C@H](Cc3ccc(-c4ccc(C(=O)O)cc4)cc3)NC(=O)CNC(=O)[C@@H](C)N(C)C(=O)[C@H](CC(=O)O)NC(=O)[C@H]([C@@H](C)c3cccc4ccccc34)NC(=O)[C@@H]3C[C@@H](N)CN3C(=O)CNC(=O)[C@H](Cc3ccc(C(=O)O)cc3)NC(=O)[C@H](Cc3c[nH]c4ccccc34)NC2=O)cc1 [Example 94] (cyclo([AEF](Ac)W[Phe(4-COOH)]G[Pro(4R-NH2)][1Nal(3S-Me)]D[dNMeA]G[Bip(4'-COOH)][1Nal][Dap][Aib][h3Pal(5-CN)]))
3 | 91 pM | CC(=O)NCCOc1ccc(C[C@@H]2NC(=O)[C@H](CCc3ccc(C(F)(F)F)cc3)NC(=O)[C@@H](C)NC(=O)[C@H](CO)NC(=O)[C@H](Cc3ccncc3)NC(=O)[C@H](Cc3ccc(-c4ccc(C(=O)O)cc4)cc3)NC(=O)CNC(=O)[C@@H](C)N(C)C(=O)[C@H](CC(=O)O)NC(=O)[C@H]([C@@H](C)c3cccc4ccccc34)NC(=O)[C@@H]3C[C@@H](N)CN3C(=O)CNC(=O)[C@H](Cc3ccc(C(=O)O)cc3)NC(=O)[C@H](Cc3c[nH]c4ccccc34)NC2=O)cc1 [Example 105] (cyclo([AEF](Ac)W[Phe(4-COOH)]G[Pro(4R-NH2)][1Nal(3S-Me)]D[dNMeA]G[Bip(4'-COOH)][4Pal]S[dA][hPhe(4-CF3)]))
4 | 402 pM | C[C@@H]1C(=O)NCC(=O)N[C@@H](Cc2ccc(-c3ccc(C(=O)O)cc3)cc2)C(=O)N[C@@H](CCCN)C(=O)N[C@@H](CO)C(=O)N[C@H](C)C(=O)N[C@@H](CCc2ccc(O)cc2)C(=O)N[C@@H](Cc2ccc(-c3ccc(C(=O)O)cc3)cc2)C(=O)N[C@@H](Cc2c[nH]c3ccccc23)C(=O)N[C@@H](Cc2ccc(C(=O)O)cc2)C(=O)NCC(=O)N2C[C@H](N)C[C@H]2C(=O)N[C@@H]([C@@H](C)c2c[nH]c3cccc(Cl)c23)C(=O)N[C@@H](CC(=O)O)C(=O)N1C [Example 49] (cyclo([Bip(4'-COOH)]W[Phe(4-COOH)]G[Pro(4R-NH2)][Trp(4-Cl)(βS-Me)]D[dNMeA]G[Bip(4'-COOH)][Orn]S[dA][hTyr]))
5 | 120 pM | CC(=O)NCCOc1ccc(C[C@@H]2NC(=O)[C@H](CCc3ccc(O)cc3)NC(=O)C(C)(C)NC(=O)[C@H](CCN)NC(=O)[C@H](Cc3cccc4ccccc34)NC(=O)[C@H](Cc3ccc(-c4ccc(C(=O)O)cc4)cc3)NC(=O)CNC(=O)[C@@H](C)N(C)C(=O)[C@H](CC(=O)O)NC(=O)[C@H]([C@@H](C)c3cccc4ccccc34)NC(=O)[C@@H]3C[C@@H](N)CN3C(=O)CNC(=O)[C@H](Cc3ccc(C(=O)O)cc3)NC(=O)[C@H](Cc3c[nH]c4ccccc34)NC2=O)cc1 [Example 93] (cyclo([AEF](Ac)W[Phe(4-COOH)]G[Pro(4R-NH2)][1Nal(3S-Me)]D[dNMeA]G[Bip(4'-COOH)][1Nal][Dab][Aib][hTyr]))
6 | 55.1 pM | C[C@@H]1C(=O)NCC(=O)N[C@@H](Cc2ccc(-c3ccc(C(=O)O)cc3)nc2)C(=O)N[C@@H](Cc2c[nH]c3ccccc23)C(=O)N[C@@H](CN)C(=O)N[C@H](C)C(=O)N[C@@H](CCc2ccc(O)cc2)C(=O)N[C@@H](Cc2ccc(-c3ccc(C(=O)O)cc3)cc2)C(=O)N[C@@H](Cc2c[nH]c3ccccc23)C(=O)N[C@@H](Cc2ccc(C(=O)O)cc2)C(=O)NCC(=O)N2C[C@H](N)C[C@H]2C(=O)N[C@@H]([C@@H](C)c2cccc3ccccc23)C(=O)N[C@@H](CC(=O)O)C(=O)N1C [Example 12] (cyclo([Bip(4'-COOH)]W[Phe(4-COOH)]G[Pro(4R-NH2)][1Nal(3S-Me)]D[dNMeA]G[X2]W[Dap][dA][hTyr]))
7 | 18.5 pM | C[C@@H]1C(=O)NCC(=O)N[C@@H](Cc2ccc(-c3ccc(C(=O)O)cc3)cc2)C(=O)N[C@@H](Cc2c[nH]c3ccccc23)C(=O)N[C@@H](CN)C(=O)N[C@H](C)C(=O)N[C@@H](CCc2cncc(C#N)c2)C(=O)N[C@@H](Cc2ccc(-c3ccc(C(=O)O)cc3)cc2)C(=O)N[C@@H](Cc2c[nH]c3ccccc23)C(=O)N[C@@H](Cc2ccc(C(=O)O)cc2)C(=O)NCC(=O)N2C[C@H](N)C[C@H]2C(=O)N[C@@H]([C@@H](C)c2cccc3ccccc23)C(=O)N[C@@H](CC(=O)O)C(=O)N1C [Example 30] (cyclo([Bip(4'-COOH)]W[Phe(4-COOH)]G[Pro(4R-NH2)][1Nal(3S-Me)]D[dNMeA]G[Bip(4'-COOH)]W[Dap][dA][h3Pal(5-CN)]))

Same assay, conditions: inhibition of IL-1β induced IL-6 secretion in MRC5 cells; read-out: MRC5 IC50

Row | IC50 | SMILES
8 | 13 pM | CC(=O)N1CCN(c2ccc(C[C@@H]3NC(=O)[C@H](CCC4CCCCC4)NC(=O)[C@@H](C)NC(=O)[C@H](CC(C)C)NC(=O)[C@H](CCCN)NC(=O)[C@H](Cc4ccc(-c5ccc(C(=O)O)cc5)cc4)NC(=O)CNC(=O)[C@@H](C)N(C)C(=O)[C@H](CC(=O)O)NC(=O)[C@H]([C@@H](C)c4cccc5ccccc45)NC(=O)[C@@H]4C[C@@H](N)CN4C(=O)CNC(=O)[C@H](Cc4ccc(C(=O)O)cc4)NC(=O)[C@H](Cc4c[nH]c5ccccc45)NC3=O)cn2)CC1 [Example 182] (cyclo([X1]W[Phe(4-COOH)]G[Pro(4R-NH2)][1Nal(3S-Me)]D[dNMeA]G[Bip(4'-COOH)][Orn]L[dA][hCha]))
9 | 214 pM | CC(=O)NCCOc1ccc(C[C@@H]2NC(=O)[C@H](CCc3ccc(O)cc3)NC(=O)[C@@H](C)NC(=O)[C@H](CO)NC(=O)[C@H](CCCCN)NC(=O)[C@H](Cc3ccc(-c4ccc(C(=O)O)cc4)cc3)NC(=O)CNC(=O)[C@@H](C)N(C)C(=O)[C@H](CC(=O)O)NC(=O)[C@H]([C@@H](C)c3c[nH]c4cccc(Cl)c34)NC(=O)[C@@H]3C[C@@H](N)CN3C(=O)CNC(=O)[C@H](Cc3ccc(C(=O)O)cc3)NC(=O)[C@H](Cc3c[nH]c4ccccc34)NC2=O)cc1 [Example 138] (cyclo([AEF](Ac)W[Phe(4-COOH)]G[Pro(4R-NH2)][Trp(4-Cl)(βS-Me)]D[dNMeA]G[Bip(4'-COOH)]KS[dA][hTyr]))
10 | 515 pM | CC(=O)NCCOc1ccc(C[C@@H]2NC(=O)CNC(=O)[C@@H](C)NC(=O)[C@H](CCN3CCOCC3)NC(=O)[C@H](Cc3c[nH]c4ccccc34)NC(=O)[C@H](Cc3ccc(-c4ccc(C(=O)O)cc4)cc3)NC(=O)CNC(=O)[C@@H](C)N(C)C(=O)[C@H](CC(=O)O)NC(=O)[C@H]([C@@H](C)c3c[nH]c4cccc(Cl)c34)NC(=O)[C@@H]3C[C@@H](N)CN3C(=O)CNC(=O)[C@H](Cc3ccc(C(=O)O)cc3)NC(=O)[C@H](Cc3c[nH]c4ccccc34)NC2=O)cc1 [Example 140] (cyclo([AEF](Ac)W[Phe(4-COOH)]G[Pro(4R-NH2)][Trp(4-Cl)(βS-Me)]D[dNMeA]G[Bip(4'-COOH)]W[X7][dA]G))
11 | 860 pM | CC(=O)NCCOc1ccc(C[C@@H]2NC(=O)[C@H](Cc3ccc(OCCN4CCOCC4)cc3)NC(=O)[C@@H](C)NC(=O)[C@H](CN)NC(=O)[C@H](Cc3c[nH]c4ccccc34)NC(=O)[C@H](Cc3ccc(-c4ccc(C(=O)O)cc4)cc3)NC(=O)CNC(=O)[C@@H](C)N(C)C(=O)[C@H](CC(=O)O)NC(=O)[C@H]([C@@H](C)c3cccc4ccccc34)NC(=O)[C@@H]3C[C@@H](N)CN3C(=O)CNC(=O)[C@H](Cc3ccc(C(=O)O)cc3)NC(=O)[C@H](Cc3c[nH]c4ccccc34)NC2=O)cc1 [Example 120] (cyclo([AEF](Ac)W[Phe(4-COOH)]G[Pro(4R-NH2)][1Nal(3S-Me)]D[dNMeA]G[Bip(4'-COOH)]W[Dap][dA]Y(Ethyl(2-morpholino))))
12 | 90 pM | CC(=O)NCCOc1ccc(C[C@@H]2NC(=O)[C@H](CCc3ccc(O)cc3)NC(=O)[C@@H](C)NC(=O)[C@H](CO)NC(=O)[C@H](Cc3c[nH]c4ccccc34)NC(=O)[C@H](Cc3ccc(-c4ccc(C(=O)O)cc4)cc3)NC(=O)CNC(=O)[C@@H](C)N(C)C(=O)[C@H](CC(=O)O)NC(=O)[C@H]([C@@H](C)c3cccc4ccccc34)NC(=O)[C@@H]3C[C@@H](N)CN3C(=O)CNC(=O)[C@H](Cc3ccc(C(=O)O)cc3)NC(=O)[C@H](Cc3c[nH]c4ccccc34)NC2=O)cc1 [Example 128] (cyclo([AEF](Ac)W[Phe(4-COOH)]G[Pro(4R-NH2)][1Nal(3S-Me)]D[dNMeA]G[Bip(4'-COOH)]WS[dA][hTyr]))
